The text below walks through data of patent publication US20080312287A1, “Compound and Methods For the Treatment of Cancer and Malaria” (University of Washington, priority 2005, published 2008).

The test system of one test is P. falciparum 3D7. The test can be described thus: P. falciparum ED50 determination, [3H]-hypoxanthine incorporation, strain 3D7. Format: cell-based, Plasmodium falciparum. From the text:
(§1) Plasmodium strains. The P. falciparum strains used in this study were 3D7 (Netherlands, sensitive) provided by Dr. Pradipsinh Rathod from the University of Washington and K1 (Thailand, ChQ-R, Pyr-R) obtained from the MR4Unit of the American Type Culture Collection (ATCC, Manassas, Va.).
(§2) P. falciparum culture. Strains of P. falciparum were sustained in vitro based on experimental techniques as described by Trager and Jensen.^26 Cultures were maintained in RPMI-1640 (Sigma, St. Louis, […].) with 2 mM L-glutamine, 25 mM HEPES, 33 mM NaHCO3, 20 μg/ml gentamicin sulfate and 20% (v/v) heat-inactivated human plasma type A+ (R^P-20P). Type A+ erythrocytes were obtained from lab donors, washed three times with RPMI, re-suspended in 50% RPMI, and stored at 4° C. Parasites were grown in 10 mL of a 2% hematocrit/RP-20P (v/v) in 50-mL flasks under a 5% CO2, 5% O2, and 90% N2 atmosphere.
(§3) P. falciparum ED50 determination. One […]L of PFTI dissolved in DMSO was added to each well of a 96-well plate followed by the addition of 200 μL of P. falciparum culture at parasitemia and hematocrit of 0.5%. Plates were flushed with 5% CO2, 5% O2, and 90% N2 then incubated at 37° C. for 48 hr. [8-^3H]-hypoxanthine (0.3 μCi, 20 Ci/mmol, American Radiolabeled Chemicals) in 30 μL RP-20P was added to cultures and incubated for an additional 24 hours. Cells were harvested onto filter mats by a Multiharvester (Skatron, Sunnyvale, Calif.) and the radioactivity incorporated into the parasites was counted on a β-scintillation counter. The background level detected with uninfected erythrocytes was subtracted from the data. The ^3H-incorporation into infected RBCs with 1 μL DMSO vehicle alone represents 100% malaria growth. ED50 values were determined by linear regression analysis of the plots of ^3H-hypoxanthine incorporation versus concentration of compound.

The test system of the next test is P. falciparum K1. The test can be described thus: P. falciparum ED50 determination, [3H]-hypoxanthine incorporation, strain K1. Format: cell-based, Plasmodium falciparum.
Description: as §1, §2, §3

Another test deals with Rat FTase (Rattus norvegicus, UniProt Q02293+Q04631). Nature of the test: Rat farnesyltransferase IC50 determination. Format: biochemical. The conditions noted are these: concentration decreasing transferase activity twofold.
Another test concerns the target T1, PfPFT (Plasmodium falciparum, UniProt Q8I503+Q8IHP6).
T1 sequence (Q8I503 1-521): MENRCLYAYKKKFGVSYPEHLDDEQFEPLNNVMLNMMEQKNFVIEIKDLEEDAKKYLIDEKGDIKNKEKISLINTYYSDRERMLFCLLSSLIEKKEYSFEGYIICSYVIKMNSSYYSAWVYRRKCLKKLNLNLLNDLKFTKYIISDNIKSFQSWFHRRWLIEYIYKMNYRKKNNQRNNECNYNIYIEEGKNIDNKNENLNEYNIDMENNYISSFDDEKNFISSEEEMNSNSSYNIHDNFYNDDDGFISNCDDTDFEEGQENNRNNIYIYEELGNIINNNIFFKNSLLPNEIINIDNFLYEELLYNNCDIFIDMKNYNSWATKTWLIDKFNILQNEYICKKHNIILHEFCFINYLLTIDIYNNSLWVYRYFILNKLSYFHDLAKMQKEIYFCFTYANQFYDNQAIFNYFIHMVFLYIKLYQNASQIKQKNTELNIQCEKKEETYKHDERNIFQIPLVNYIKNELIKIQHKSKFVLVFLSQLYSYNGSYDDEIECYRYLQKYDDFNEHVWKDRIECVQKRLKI
T1 sequence (Q8IHP6 1-923): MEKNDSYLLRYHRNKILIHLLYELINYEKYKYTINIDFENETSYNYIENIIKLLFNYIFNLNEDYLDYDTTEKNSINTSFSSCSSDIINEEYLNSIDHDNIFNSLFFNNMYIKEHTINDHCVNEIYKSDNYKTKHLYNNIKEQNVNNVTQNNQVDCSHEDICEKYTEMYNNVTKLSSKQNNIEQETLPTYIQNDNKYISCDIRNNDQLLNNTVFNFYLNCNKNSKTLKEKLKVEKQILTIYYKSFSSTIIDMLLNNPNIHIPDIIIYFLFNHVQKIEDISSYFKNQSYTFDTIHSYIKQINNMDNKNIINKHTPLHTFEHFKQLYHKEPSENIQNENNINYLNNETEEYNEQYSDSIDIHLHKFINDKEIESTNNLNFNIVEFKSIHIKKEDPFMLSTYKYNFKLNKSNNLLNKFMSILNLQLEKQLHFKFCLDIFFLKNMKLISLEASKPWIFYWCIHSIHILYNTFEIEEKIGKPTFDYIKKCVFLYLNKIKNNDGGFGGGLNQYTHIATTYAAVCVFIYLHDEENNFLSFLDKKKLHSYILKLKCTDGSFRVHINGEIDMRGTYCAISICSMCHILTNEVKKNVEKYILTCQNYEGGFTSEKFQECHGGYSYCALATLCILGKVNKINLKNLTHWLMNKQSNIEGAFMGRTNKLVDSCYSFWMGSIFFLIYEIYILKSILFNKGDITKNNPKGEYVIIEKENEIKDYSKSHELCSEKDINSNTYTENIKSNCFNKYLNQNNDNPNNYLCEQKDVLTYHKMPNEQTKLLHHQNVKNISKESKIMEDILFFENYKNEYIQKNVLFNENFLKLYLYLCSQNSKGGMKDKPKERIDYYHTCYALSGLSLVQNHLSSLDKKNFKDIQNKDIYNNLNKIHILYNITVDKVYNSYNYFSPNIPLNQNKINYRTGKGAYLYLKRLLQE
Nature of the test: PfPFT inhibition, scintillation proximity assay with partially purified PfPFT. Format: biochemical. The following applies: for inhibition at 0.005 µM: read-out: % Inhibition of PfPFT at 5 nM, inhibitor at 5 nM; for inhibition at 0.05 µM: read-out: % Inhibition of PfPFT at 50 nM, inhibitor at 50 nM; for Selectivity: ratio of rat to Plasmodium PFT activity; for IC50: concentration decreasing transferase activity twofold. Background: In a scintillation proximity assay essentially only radioactivity close to the scintillant gives light.

Setting [1] is: Plasmodium falciparum, 3D7, strain 3D7, concentration decreasing hypoxanthine incorporation into parasites twofold, read-out: ED50 3D7.
Where [2] appears, read: Plasmodium falciparum, K1, strain K1, concentration decreasing hypoxanthine incorporation into parasites twofold, read-out: ED50 K1.
Where [3] appears, read: strain 3D7, concentration decreasing hypoxanthine incorporation into parasites twofold, read-out: ED50 3D7.
Setting [4] is: strain K1, concentration decreasing hypoxanthine incorporation into parasites twofold, read-out: ED50 K1.

Read-outs that look alike come from different tables or passages of the source.

Take `Cn1cnc(S(=O)(=O)N(CCN(Cc2cncn2C)c2ccc(C#N)cc2)Cc2ccccn2)c1` [Compound 8aa, 1-Methyl-1H-imidazole-4-sulfonic acid {2-[(4-cyano-phenyl)-(3-methyl-3H-imidazol-4-ylmethyl)-amino]-ethyl}-pyridin-2-ylmethyl-amide amide]: the EC50 in the test with P. falciparum 3D7 (setting [1]) was 750 nM. Further, the EC50 with P. falciparum K1 (setting [2]) is 1000 nM. For the same molecule, the IC50 (commonly the concentration that gives 50% inhibition) at Rat FTase is 43 nM. At PfPFT, the inhibition (usually the share of the control response that was lost under treatment) at 0.005 µM is 64% and the inhibition at 0.05 µM was 93%.
For `Cn1cnc(S(=O)(=O)N(CCN(Cc2cncn2C)c2ccc(C#N)cc2)Cc2ccc(C#N)cc2)c1` [Compound 8ae, 1-Methyl-1H-imidazole-4-sulfonic acid (4-cyano-benzyl)-{2-[(4-cyano-phenyl)-(3-methyl-3H-imidazol-4-ylmethyl)-amino]-ethyl}-amide], in the test with P. falciparum 3D7 (setting [1]), the EC50 worked out at 1600 nM. The EC50 with P. falciparum K1 (setting [2]) is 4100 nM. Besides, the half-maximal inhibitory concentration (IC50) at Rat FTase came out at 350 nM. Further, on PfPFT, the Selectivity is given as 3.7, the inhibition at 0.005 µM was 24% and the inhibition at 0.05 µM is 48%.
On to `Cn1cnc(S(=O)(=O)N(CCN(Cc2cncn2C)c2ccc(Br)cc2)Cc2ccccc2)c1` [Compound 8b, 1-Methyl-1H-imidazole-4-sulfonic acid benzyl-{2-[(4-bromo-phenyl)-(3-methyl-3H-imidazol-4-ylmethyl)-amino]-ethyl}-amide], for which the EC50 with P. falciparum 3D7 (setting [1]) was 675 nM; in the test with P. falciparum K1 (setting [2]) it was 3200 nM. At Rat FTase, this molecule returned an IC50 of 290 nM. At PfPFT, the inhibition at 0.005 µM was found to be 86%. On PfPFT, the inhibition at 0.05 µM was 95%.
In the case of `Cc1ccccc1CN(CCN(Cc1cncn1C)c1ccc(-c2ccccc2)cc1)S(=O)(=O)c1cn(C)cn1` [Compound 8c, 1-Methyl-1H-imidazole-4-sulfonic acid {2-[biphenyl-4-yl-(3-methyl-3H-imidazol-4-ylmethyl)-amino]-ethyl}-(2-methyl-benzyl)-amide], the EC50 was 2500 nM in the test with P. falciparum 3D7 (setting [1]), 2600 nM in the test on P. falciparum 3D7 (setting [3]), 2600 nM in the test with P. falciparum K1 (setting [2]) and 2500 nM in the test with P. falciparum K1 (setting [4]). Besides, the IC50 was greater than 1000 nM against Rat FTase and 8 nM against PfPFT. Moreover, the inhibition at 0.005 µM at PfPFT turned out to be 49%. Moreover, on PfPFT, the inhibition at 0.05 µM was 85%.
As to `Cn1cncc1CN(CCN(Cc1ccccc1)S(=O)(=O)c1ccccc1)c1ccc(C#N)cc1` [Compound 8e, N-Benzyl-N-{2-[(4-cyano-phenyl)-(3-methyl-3H-imidazol-4-ylmethyl)-amino]-ethyl}-benzenesulfonamide], the EC50 with P. falciparum 3D7 (setting [1]) amounted to 2500 nM. Besides, the EC50 with P. falciparum K1 (setting [2]) is 2250 nM. This molecule had an IC50 against Rat FTase of 13 nM. Moreover, on PfPFT, the Selectivity was found to be 1.5, the inhibition at 0.005 µM stood at 18% and the inhibition at 0.05 µM is 69%.
In the case of `CN(C)c1cccc2c(S(=O)(=O)N(CCN(Cc3cncn3C)c3ccc(C#N)cc3)Cc3ccccc3)cccc12` [Compound 8i, 5-Dimethylamino-naphthalene-1-sulfonic acid benzyl-{2-[(4-cyano-phenyl)-(3-methyl-3H-imidazol-4-ylmethyl)-amino]-ethyl}-amide], the EC50 with P. falciparum 3D7 (setting [1]) came out at 300 nM. Moreover, the EC50 with P. falciparum K1 (setting [2]) came to 388 nM. The IC50 against Rat FTase came out at 180 nM. Besides, at PfPFT, the Selectivity is 3.3, the inhibition at 0.005 µM came to 6% and the inhibition at 0.05 µM amounted to 29%.
Consider `Cn1cnc(S(=O)(=O)N(CCN(Cc2cncn2C)c2ccc(C#N)cc2)CC(=O)NC(C)(C)C)c1` [Compound 8o, N-tert-Butyl-2-[{2-[(4-cyano-phenyl)-(3-methyl-3H-imidazol-4-ylmethyl)-amino]-ethyl}-(1-methyl-1H-imidazole-4-sulfonyl)-amino]-acetamide], for which the EC50 was 2800 nM in the test on P. falciparum 3D7 (setting [1]) and greater than 5000 nM in the test with P. falciparum K1 (setting [2]). Also, the IC50 against Rat FTase and on PfPFT was greater than 1000 nM each time. In addition, the inhibition at 0.005 µM at PfPFT came to 4%. Besides, the inhibition at 0.05 µM at PfPFT is 6%.
Take `Cn1cnc(S(=O)(=O)N(CCN(Cc2cncn2C)c2ccc(C#N)cc2)CC2CCN(c3ncccn3)CC2)c1` [Compound 8w, 1-Methyl-1H-imidazole-4-sulfonic acid {2-[(4-cyano-phenyl)-(3-methyl-3H-imidazol-4-ylmethyl)-amino]-ethyl}-(1-pyrimidin-2-yl-piperidin-4-ylmethyl)-amide]: the EC50 with P. falciparum 3D7 (setting [1]) was 130 nM. In addition, the EC50 with P. falciparum K1 (setting [2]) is 85 nM. Also, at PfPFT, the IC50 is 1.5 nM, the inhibition at 0.005 µM worked out at 74% and the inhibition at 0.05 µM came to 96%.
With `Cc1cccc(CN(CCN(Cc2cncn2C)c2ccc(C#N)cc2)S(=O)(=O)c2cn(C)cn2)c1` [Compound 8y, 1-Methyl-1H-imidazole-4-sulfonic acid {2-[(4-cyano-phenyl)-(3-methyl-3H-imidazol-4-ylmethyl)-amino]-ethyl}-(3-methyl-benzyl)-amidem-toluene], the EC50 with P. falciparum 3D7 (setting [3]) stood at 300 nM; with P. falciparum K1 (setting [4]), 1000 nM. Besides, at PfPFT (inhibitor at 5 nM), the “% Inhibition of PfPFT at 5 nM” value was determined as 61%. In addition, the “% Inhibition of PfPFT at 50 nM” value at PfPFT (inhibitor at 50 nM) was 94%.
For `Cc1ccc(CN(CCN(Cc2cncn2C)c2ccc(C#N)cc2)S(=O)(=O)c2cn(C)cn2)cc1` [Compound 8z, 1-Methyl-1H-imidazole-4-sulfonic acid {2-[(4-cyano-phenyl)-(3-methyl-3H-imidazol-4-ylmethyl)-amino]-ethyl}-(4-methyl-benzyl)-amide], the EC50 in the test with P. falciparum 3D7 (Plasmodium falciparum, 3D7, read-out: ED50 3D7) amounted to 2700 nM. In addition, the EC50 with P. falciparum K1 (Plasmodium falciparum, K1, read-out: ED50 K1) was greater than 5000 nM. At PfPFT, the inhibition at 0.005 µM stood at 45% and the inhibition at 0.05 µM was 54%.
Molecule `Cn1cnc(S(=O)(=O)N(CCN(Cc2cncn2C)c2ccc(Br)cc2)Cc2ccccn2)c1` [Compound 13, 1-Methyl-1H-imidazole-4-sulfonic acid {2-[(4-bromo-phenyl)-(3-methyl-3H-imidazol-4-ylmethyl)-amino]-ethyl}-pyridin-2-ylmethyl-amide] had an IC50 on Rat FTase of 83 nM.
